Results taken from article PMC7822592, “The half-life of the bone-derived hormone osteocalcin is regulated through O-glycosylation in mice, but not in humans” (eLife, 2020).

Tested on: primary osteoblasts
Assay: Percentage of carboxylated OCN (Gla-OCN) over total OCN by ELISA in osteoblast secretion medium
Assay type: cell-based, mouse
Method: Primary osteoblasts were transfected using jetPRIME Reagent (Polypus transfection). After an overnight incubation, media were changed to secretion media (FBS-free αMEM plus 2 mM L-glutamine, PS). After 24 hr of secretion, media were collected, and cells were lysed in protein lysis buffer (20 mM Tris-HC pH 7.4, 150 mM NaCl, 1 mM EDTA, 1 mM EGTA, 1% Triton, 1 mM PMSF, and 1 × protease inhibitor cocktail) and analyzed by western blotting. In some experiments, osteoblasts were treated with the γ-carboxylation inhibitor warfarin (50 μM; Santa Cruz Biotechnology), the N-acetylgalactosaminyltransferase inhibitor GalNAc-bn (2 mM, Sigma) or the proprotein convertase inhibitor Dec-RVKR-CMK (50 μM, Tocris), combined with 22 μM vitamin K1 (Sigma).

SMILES | Gla OCN (% of total) (osteoblasts transfected with OCN-V5, inhibitor 2 mM, secretion medium, Figure 2C, replicate 1) | Gla OCN (% of total) (osteoblasts transfected with OCN-V5, inhibitor 2 mM, secretion medium, Figure 2C, replicate 2) | Gla OCN (% of total) (osteoblasts transfected with OCN-V5, inhibitor 50 μM, Figure 2D/2E, replicate 1) | Gla OCN (% of total) (osteoblasts transfected with OCN-V5, inhibitor 50 μM, Figure 2D/2E, replicate 2) | Gla OCN (% of total) (osteoblasts transfected with OCN-V5, inhibitor 50 μM, Figure 2D/2E, replicate 3) | Gla OCN (% of total) (osteoblasts transfected with OCN-V5, inhibitor 50 μM, secretion medium, Figure 2C, replicate 1) | Gla OCN (% of total) (osteoblasts transfected with OCN-V5, inhibitor 50 μM, secretion medium, Figure 2C, replicate 2) | Gla OCN (% of total) (osteoblasts transfected with OCNS8A-V5, inhibitor 50 μM, Figure 2D/2E, replicate 1) | Gla OCN (% of total) (osteoblasts transfected with OCNS8A-V5, inhibitor 50 μM, Figure 2D/2E, replicate 2) | Gla OCN (% of total) (osteoblasts transfected with OCNS8A-V5, inhibitor 50 μM, Figure 2D/2E, replicate 3)
CC(=O)N[C@H]1[C@@H](OCc2ccccc2)O[C@H](CO)[C@H](O)[C@@H]1O [GalNAc-bn, benzyl-N-acetyl-α-galactosaminide] | 43.4 % of total | 43.4 % of total | – | – | – | – | – | – | – | –
CC(=O)CC(c1ccccc1)c1c(O)c2ccccc2oc1=O (stereo not shown) [Warfarin] | – | – | 29.8 % of total | 27.1 % of total | 26.1 % of total | 14.3 % of total | 19.5 % of total | 26.8 % of total | 20.4 % of total | 29.1 % of total
